# Reference: paper PMC4014072 (Molecular and cellular biochemistry, 2010)
# Biological target: LdLip3::HA (LdLip3 secretory lipase) (Leishmania donovani, UniProt D7P7V3)
# Assay: fluorogenic 4MU release assay, anti-HA affinity-purified enzyme
# Type: biochemical
# Conditions: 150 µM substrate, McIlvaine buffer pH 6.0, 37 and 42 °C, 30 min
smiles,measurement,value
CCCCCCCCCCCCCCCCCC(=O)Oc1ccc2c(C)cc(=O)oc2c1 [4MU-stearate],"fluorogenic 4MU release assay, anti-HA affinity-purified enzyme",LdLip3∷HA chimeric protein and pKSNEO controls were subsequently analyzed for lipase activity using 4MU-stearate
